Assays:
Assay type in all cases: binding
[1] = test system: rabbit sera IgG; assay: microarray assay of rabbit sera IgG reactivity to small molecule-peptide-agarose conjugates; details: sera (n=5) one month post-immunization, serially diluted; dilution of 1:6750 or lower; on PDC-E2 peptide
Experimental: (§1) Preparation of microarray and analysis of immunoreactivity. Xenobiotic compounds-peptide-agarose mixture were diluted (0.1%) in 0.1 M Na2CO3/NaHCO3 buffer (p)H 9.0), and transferred to 96 well plates. Thereafter mixtures were spotted onto glass slides (Mercedes Medical, Florida) using the Affymetrix 417 Microarrayer (Affymetrix, Santa Clara, Calif.). Each sample was spotted in triplicate, with a spot size of 150 μm in diameter. Spotted microarrays were stored at 4° C. until use. Before use, microarrays were blocked with 3% non-fat dry milk in PBS buffer for 1 hour at room temperature, and individual slides were thereafter incubated with diluted antibody samples (rabbit sera 1:250, murine anti-PDC monoclonal antibody 1:1) in 1 ml of blocking buffer (3% non-fat dry milk in PBS with 0.05% tween-20) (PBST) for 1 hour at room temperature. After thorough washes with PBST, 1 ml of the Cy3 conjugated secondary antibody (1 μg/ml) (Zymed Laboratories Inc. San Francisco, Calif.) in blocking buffer was added to each slide and incubated at room temperature for 30 min. […] Mixtures of xenobiotics and agarose were also spotted and analyzed as controls. […]
Comparison between ELISA and microarray assay. Rabbit sera (n=5) at one month post-immunization were serially diluted (1:250, 1:750, 1:2250, 1:6750 and 1:20250) and IgG reactivity to small molecule-peptide-agarose conjugates were determined by both the ELISA and microarray assay. […] Likewise, IgG reactivity of rabbit sera at 0, 1, 6, 12 and 22 months post-immunization against recombinant human PDC-E2 protein (see Leung, P. S. et al. J. Immunol. 2003, 170:5326) and KLH (Sigma, St. Louis, Mo.) was determined at 1:100 sera dilution by standard ELISA.
Validation of peptide microarray assay. […] Rabbit sera (n=5) at one month post-immunization with human recombinant PDC-E2 were serially diluted and their IgG reactivity against 6-bromohexanoate, compound 9, lipoic acid on PDC-E2 peptide and non-lipoylated native PDC-E2 peptide were determined by both ELISA and microarray assay (FIG. 13). […]

[2] = test system: rabbit sera IgG; assay: ELISA of rabbit sera IgG reactivity to small molecule-peptide-agarose conjugates; details: sera (n=5) one month post-immunization, serially diluted; dilution of 1:6750 or lower; on PDC-E2 peptide
Experimental: Comparison between ELISA and microarray assay. Rabbit sera (n=5) at one month post-immunization were serially diluted (1:250, 1:750, 1:2250, 1:6750 and 1:20250) and IgG reactivity to small molecule-peptide-agarose conjugates were determined by both the ELISA and microarray assay. Briefly, ELISA plates were coated with 50 μl of each individual xenobiotic compounds-peptide-agarose mixture in DMSO (1 mg/ml) for 2 hours at room temperature, then antigens were removed and plates dried overnight at room temperature. Dried ELISA plates were thereafter blocked with 3% non-fat dry milk in PBS and incubated with serially diluted rabbit sera for 1 hour at room temperature. After washing, the plates were incubated with HRP conjugated mouse anti-rabbit IgG (Zymed, San Francisco, Calif.) antibodies for 30 min at room temperature, washed and incubated with 2,2′-azino-bis(3-ethylbenzthiazoline-6-sulfonic acid) containing hydrogen peroxide (Kirkegaard & Perry Laboratories, Inc, MD). Likewise, IgG reactivity of rabbit sera at 0, 1, 6, 12 and 22 months post-immunization against recombinant human PDC-E2 protein (see Leung, P. S. et al. J. Immunol. 2003, 170:5326) and KLH (Sigma, St. Louis, Mo.) was determined at 1:100 sera dilution by standard ELISA.
Validation of peptide microarray assay. To validate the microarray assay, data obtained using the microarray and ELISA were compared. Rabbit sera (n=5) at one month post-immunization with human recombinant PDC-E2 were serially diluted and their IgG reactivity against 6-bromohexanoate, compound 9, lipoic acid on PDC-E2 peptide and non-lipoylated native PDC-E2 peptide were determined by both ELISA and microarray assay (FIG. 13). […] To validate the sensitivity of the microarray, four different concentrations (0.1%, 0.03%, 0.01% and 0.004%) of HA peptide ([…]) were spotted. Individual arrays were incubated with murine monoclonal anti-HA antibody or normal murine IgG followed by secondary antibody (goat anti-murine IgG) conjugated to Cy3.

[3] = test system: murine anti-PDC monoclonal antibody 2H4; assay: xenobiotic-peptide-agarose microarray, reactivity of mAb 2H4; details: xenobiotic or lipoic acid coupled to PDC peptide-agarose
Excerpt: Synthesis of mimeotopes and coupling with peptide-agarose conjugate. Carboxylic acid derivatives of twenty-three xenobiotic compounds were used in this study. Compounds 1-19 were synthesized as described in Long, S. A. et al. J. Immunol. 2001, 167:2956 which is herein incorporated by reference in its entirety. The carboxylic acid derivatives are then reacted with NHS to form the corresponding NHS esters. These 23 compounds, in addition to lipoic acid with NHS ester, were coupled to the lysine residue on the PDC-E2 peptide-agarose conjugate as follows. Briefly, 0.4 mg of the PDC-E2 peptide-agarose conjugate and 10 μmol of each of the NHS esters were mixed in 40 μl of DMSO. Mixtures were incubated at room temperature for 2 hours. To ensure complete coupling, a quantitative ninhydrin test at 570 nm was performed.
as §1, with “min. Subsequently slides were washed in PBST for 10 min and in water for 15 sec.” for “min.”

[4] = test system: murine monoclonal anti-HA antibody; assay: HA peptide microarray sensitivity validation with anti-HA monoclonal antibody

## O=C(O)CCCC[C@@H]1CCSS1 (racemic) [lipoic acid]
[1]
  rabbit sera IgG reactivity, microarray assay: dilution dependent response
[2]
  rabbit sera IgG reactivity, ELISA: dilution dependent response
[3]
  reactivity of mAb 2H4: bound strongly

## DKATIGFEVQEE [non-lipoylated native PDC peptide, 12 mer PDC-E2 peptide on agarose, without xenobiotic or lipoic acid]
[1]
  rabbit sera IgG reactivity, microarray assay: dilution dependent response
[2]
  rabbit sera IgG reactivity, ELISA: dilution dependent response
[3]
  reactivity of mAb 2H4: Weak reactivity

## O=C(O)CCCCCBr [6-bromohexanoate]
[1]
  rabbit sera IgG reactivity, microarray assay: dilution dependent response
[2]
  rabbit sera IgG reactivity, ELISA: dilution dependent response
[3]
  reactivity of mAb 2H4: bound strongly

## YPYDVPDYA [HA peptide]
[4]; HA peptide spotted at 0.1%, 0.03%, 0.01%
  anti-HA antibody concentration giving dose dependent response: ≥ 5 ng/mL
[4]; lowest concentration of HA (0.004%)
  anti-HA antibody concentration required: > 50 ng/mL
